Test results as given in patent US12582731B2, “Method to decontaminate solid surface” (BIOMONETA RESEARCH PVT LTD, priority 2022, dated 2026).
“And” between values parts separate entries of the source, which are not always exact repeats. Equal values may be shown once.

Columns and labels:
microbial load [1] = test: Microbial load reduction on cotton cloth coated with quaternary ammonium compound alone; format: cell-based; settings: no electric field
Description: The solid surface (cotton cloth) was suspended in a solution containing cetyltrimethylammonium bromide (CTAB) or alkyl dimethyl benzyl ammonium chloride (benzalkonium chloride) at various concentrations for about 2 hours. The solid surfaces were then heat dried in a furnace where the temperature was set at about 80° C., for about 8 hours. Once dried, the solid surfaces coated with QAC were ready to be used for various applications.
Reduction in microbial load was analysed at different concentrations of QACs.

microbial load [2] = test: Microbial load reduction on QAC-coated cotton cloth with or without electric field; format: cell-based; settings: for Microbial Load Reduction (Log10 Scale): cotton cloth coated with 0.01% w/v, With Electric Field (SMPS, 4 kV/cm, 0.05 μF)
Description: The effect of QAC coating and electric field application on flexible solid surfaces was analysed. The solid surface analysed was fabric (cotton cloth). The procedure for coating of QAC (CTAB or benzalkonium chloride) onto the cotton cloth was identical to the procedure described in Example 1. The final coated amount of QAC (CTAB or benzalkonium chloride) was between 0.01-0.05 mg/cm^2 of the solid surface. The electric field in this experiment was applied via. switch mode power supply (SMPS) with a voltage of 4 kV/cm coupled with a capacitance of 0.05 μF for various time-periods.
Reduction in microbial load was analysed using different methods.

For CCCCCCCCCCCCCCCC[N+](C)(C)C.[Br-] [CTAB, cetyltrimethylammonium bromide], the “Microbial Load Reduction (Log10 Scale)” value (microbial load [1]; cotton cloth coated with 0.01% w/v, 0 mins) was 0.00 Log10, the “Microbial Load Reduction (Log10 Scale)” value (microbial load [1]; cotton cloth coated with 0.01% w/v, 10 mins) was 1.11 Log10 and the “Microbial Load Reduction (Log10 Scale)” value (microbial load [1]; cotton cloth coated with 0.01% w/v, 30 mins) was 2.52 Log10. The “Microbial Load Reduction (Log10 Scale)” value (microbial load [1]; cotton cloth coated with 0.01% w/v, 45 mins) was 4.35 Log10, the “Microbial Load Reduction (Log10 Scale)” value (microbial load [1]; cotton cloth coated with 0.01% w/v, 60 mins) was 7.60 Log10 and the “Microbial Load Reduction (Log10 Scale)” value (microbial load [1]; cotton cloth coated with 0.01% w/v, 90 mins) was 7.60 Log10. For the same compound, the “Microbial Load Reduction (Log10 Scale)” value (microbial load [1]; cotton cloth coated with 0.05% w/v, 0 mins) was 0.00 Log10, the “Microbial Load Reduction (Log10 Scale)” value (microbial load [1]; cotton cloth coated with 0.05% w/v, 10 mins) was 1.18 Log10 and the “Microbial Load Reduction (Log10 Scale)” value (microbial load [1]; cotton cloth coated with 0.05% w/v, 30 mins) was 2.54 Log10. For the same compound, the “Microbial Load Reduction (Log10 Scale)” value (microbial load [1]; cotton cloth coated with 0.05% w/v, 45 mins) was 5.12 Log10, the “Microbial Load Reduction (Log10 Scale)” value (microbial load [1]; cotton cloth coated with 0.05% w/v, 60 mins) was 7.32 Log10 and the “Microbial Load Reduction (Log10 Scale)” value (microbial load [1]; cotton cloth coated with 0.05% w/v, 90 mins) was 7.32 Log10. For the same compound, the “Microbial Load Reduction (Log10 Scale)” value (microbial load [1]; cotton cloth coated with 0.1% w/v, 0 mins) was 0.00 Log10, the “Microbial Load Reduction (Log10 Scale)” value (microbial load [1]; cotton cloth coated with 0.1% w/v, 10 mins) was 7.41 Log10 and the “Microbial Load Reduction (Log10 Scale)” value (microbial load [1]; cotton cloth coated with 0.1% w/v, 30 mins) was 7.41 Log10. For the same compound, the “Microbial Load Reduction (Log10 Scale)” value (microbial load [1]; cotton cloth coated with 0.1% w/v, 45 mins) was 7.41 Log10, the “Microbial Load Reduction (Log10 Scale)” value (microbial load [1]; cotton cloth coated with 0.1% w/v, 60 mins) was 7.41 Log10 and the “Microbial Load Reduction (Log10 Scale)” value (microbial load [1]; cotton cloth coated with 0.1% w/v, 90 mins) was 7.41 Log10. The “Microbial Load Reduction (Log10 Scale)” value (microbial load [1]; cotton cloth coated with 0.25% w/v, 0 mins) was 0.00 Log10, the “Microbial Load Reduction (Log10 Scale)” value (microbial load [1]; cotton cloth coated with 0.25% w/v, 10 mins) was 7.45 Log10 and the “Microbial Load Reduction (Log10 Scale)” value (microbial load [1]; cotton cloth coated with 0.25% w/v, 30 mins) was 7.45 Log10. The “Microbial Load Reduction (Log10 Scale)” value (microbial load [1]; cotton cloth coated with 0.25% w/v, 45 mins) was 7.45 Log10, the “Microbial Load Reduction (Log10 Scale)” value (microbial load [1]; cotton cloth coated with 0.25% w/v, 60 mins) was 7.45 Log10 and the “Microbial Load Reduction (Log10 Scale)” value (microbial load [1]; cotton cloth coated with 0.25% w/v, 90 mins) was 7.45 Log10. For the same compound, the “Microbial Load Reduction (Log10 Scale)” value (microbial load [1]; cotton cloth coated with 0.5% w/v, 0 mins) was 0.00 Log10, the “Microbial Load Reduction (Log10 Scale)” value (microbial load [1]; cotton cloth coated with 0.5% w/v, 10 mins) was 7.00 Log10 and the “Microbial Load Reduction (Log10 Scale)” value (microbial load [1]; cotton cloth coated with 0.5% w/v, 30 mins) was 7.00 Log10. The “Microbial Load Reduction (Log10 Scale)” value (microbial load [1]; cotton cloth coated with 0.5% w/v, 45 mins) was 7.00 Log10, the “Microbial Load Reduction (Log10 Scale)” value (microbial load [1]; cotton cloth coated with 0.5% w/v, 60 mins) was 7.00 Log10 and the “Microbial Load Reduction (Log10 Scale)” value (microbial load [1]; cotton cloth coated with 0.5% w/v, 90 mins) was 7.00 Log10. For the same compound, the “Microbial Load Reduction (Log10 Scale)” value (microbial load [1]; cotton cloth coated with 0.75% w/v, 0 mins) was 0.00 Log10, the “Microbial Load Reduction (Log10 Scale)” value (microbial load [1]; cotton cloth coated with 0.75% w/v, 10 mins) was 7.78 Log10 and the “Microbial Load Reduction (Log10 Scale)” value (microbial load [1]; cotton cloth coated with 0.75% w/v, 30 mins) was 7.78 Log10. For the same compound, the “Microbial Load Reduction (Log10 Scale)” value (microbial load [1]; cotton cloth coated with 0.75% w/v, 45 mins) was 7.78 Log10, the “Microbial Load Reduction (Log10 Scale)” value (microbial load [1]; cotton cloth coated with 0.75% w/v, 60 mins) was 7.78 Log10 and the “Microbial Load Reduction (Log10 Scale)” value (microbial load [1]; cotton cloth coated with 0.75% w/v, 90 mins) was 7.78 Log10. The “log10 reduction in microbial load” value (microbial load [2]; coated cotton cloth not subjected to electric field, until 30 minutes (Experiment 1 Trial 1 and 3)) was no more than 2.16 log10, the “Microbial Load Reduction (Log10 Scale)” value (microbial load [2]; 0 mins) was 0.00 Log10 and the “Microbial Load Reduction (Log10 Scale)” value (microbial load [2]; 10 mins) was 7.48 Log10 and 7.30 Log10.
